Literature values as cited in PMC3563429 (Journal of the American Chemical Society, 2013).

Test system: human calpain protease 1
Settings: for inhibitory action against the cysteine protease calpain 1: described in the patent literature; for IC50: read-out: IC50 against human calpain protease 1, previously reported

Row | IC50 | Molecule | inhibitory action against the cysteine protease calpain 1
1 | 80 nM | CCCCCC/C=C\CC(=O)N[C@@H](Cc1ccc(O)cc1)[C@@H](O)CC(=O)N[C@H](C(=O)N[C@@H](CO)[C@@H](O)CC(=O)N[C@H](C(=O)N[C@@H]1C=CC(=O)N[C@@H](C(C)C)C(=O)N(C)[C@@H](Cc2ccc(O)cc2)C(=O)OC1)C(C)C)C(C)C [Compound 12, thalassospiramide B1] | nanomolar inhibitory action
2 | 39 nM | Thalassospiramide D1 [Thalassospiramide D1 (15)] | nanomolar inhibitory action
